Key:
[1] = biological target: T1, Human recombinant PKMYT1 enzyme (Homo sapiens, UniProt Q99640); assay: ADP-GLO enzyme inhibition assay; assay type: biochemical; settings: ADP-GLO method
T1 construct: purchased Abcam
T1 sequence (Q99640 1-499): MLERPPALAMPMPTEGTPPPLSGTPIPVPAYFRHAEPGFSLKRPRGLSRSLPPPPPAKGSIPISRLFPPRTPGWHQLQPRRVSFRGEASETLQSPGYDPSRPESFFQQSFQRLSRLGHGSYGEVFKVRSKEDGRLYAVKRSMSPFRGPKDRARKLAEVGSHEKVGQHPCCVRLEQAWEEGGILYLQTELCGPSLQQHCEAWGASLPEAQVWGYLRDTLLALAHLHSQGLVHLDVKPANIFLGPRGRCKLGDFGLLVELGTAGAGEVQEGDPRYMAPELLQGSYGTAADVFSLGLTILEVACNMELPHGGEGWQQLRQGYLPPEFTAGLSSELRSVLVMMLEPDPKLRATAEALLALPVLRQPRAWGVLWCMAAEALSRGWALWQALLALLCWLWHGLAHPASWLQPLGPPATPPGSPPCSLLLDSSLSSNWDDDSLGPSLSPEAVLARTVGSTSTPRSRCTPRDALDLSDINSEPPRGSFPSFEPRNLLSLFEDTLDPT
Experimental: The ADP-GLO™ kinase assay kit, purchased from Promega Corporation (Madison, WI, United States), included the ADP-GLO reagent, the kinase assay reagent, and ultra-pure ATP and ADP. PKMYT1 enzyme was dissolved in 5 μL of freshly prepared enzyme assay buffer containing 70 mM Hepes, 3 mM MgCl2, 3 mM MnCl2, 50 μg/mL PEG20000, 3 μM sodium orthovanadate, 1.2 mM dithiothreitol, and then injected into 384-well plates. […] The enzymatic reaction was initiated by adding 5 μL of ATP, followed by a 60-min incubation at 30°C. Subsequently, 15 μL of ADP-GLO reagent was added, and the incubation was continued for an additional 40 min at room temperature. Then, 30 μL of kinase detection reagent was introduced, and the samples were incubated for a final 30 min. Luminescence measurements were taken using an Envision plate reader (PerkinElmer). The IC50 value of each tested compound was calculated by GraphPad Prism software.

[2] = biological target: T2, Human recombinant HDAC2 enzyme (Homo sapiens, UniProt Q92769); assay: HDAC2 fluorescence enzyme inhibition assay (Boc-Lys(acetyl)-AMC); assay type: biochemical; settings: fluorescence signal-based method
T2 construct: purchased Abcam
T2 sequence (Q92769 whole entry): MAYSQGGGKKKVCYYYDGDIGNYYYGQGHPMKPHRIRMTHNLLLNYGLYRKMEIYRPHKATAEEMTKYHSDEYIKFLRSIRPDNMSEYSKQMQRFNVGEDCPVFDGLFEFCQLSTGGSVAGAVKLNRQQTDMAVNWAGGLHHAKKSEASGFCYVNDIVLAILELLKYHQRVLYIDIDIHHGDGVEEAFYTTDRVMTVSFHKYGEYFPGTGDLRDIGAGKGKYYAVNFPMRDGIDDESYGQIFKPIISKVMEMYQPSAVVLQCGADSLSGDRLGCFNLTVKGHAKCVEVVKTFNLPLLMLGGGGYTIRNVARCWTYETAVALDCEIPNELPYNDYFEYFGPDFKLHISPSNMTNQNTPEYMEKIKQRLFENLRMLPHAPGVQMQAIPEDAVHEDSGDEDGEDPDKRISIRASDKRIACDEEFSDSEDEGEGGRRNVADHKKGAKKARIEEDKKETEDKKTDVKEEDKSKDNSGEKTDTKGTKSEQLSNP
Experimental: Firstly, a 96-well plate was loaded with a blend comprising 10 μL of HDAC2 enzyme solution and 50 μL of the test compounds at assorted concentrations, followed by incubation at a temperature of 37°C for a duration of 5 min. Subsequently, 10 μL of the fluorescent substrate Boc-Lys (acetyl)-AMC was added and continued for 30 min. Finally, 100 μL of developer containing trypsin and TSA was injected into each well and incubated for 20 min.

Structure (SMILES)	IC50 [1]	IC50 [2]	PKMYT1 (IC50, nM) [1]
Cc1ccc(O)c(C)c1-n1c(N)c(C(N)=O)c2cc(CCCCCC(=O)NO)c(CCCO)nc21 [PKHD-1]	11.1 ± 1.86 nM	8.64 ± 1.35 nM	–
CCc1nc2c(cc1CCCCCC(=O)NO)c(C(N)=O)c(N)n2-c1c(C)ccc(O)c1C [PKHD-2]	7.78 ± 0.91 nM	4.14 ± 0.52 nM	–
C=CCc1nc2c(cc1CCCCCC(=O)NO)c(C(N)=O)c(N)n2-c1c(C)ccc(O)c1C [PKHD-3]	9.26 ± 1.07 nM	5.47 ± 0.66 nM	–
CCCCc1nc2c(cc1CCCCCC(=O)NO)c(C(N)=O)c(N)n2-c1c(C)ccc(O)c1C [PKHD-4]	13.6 ± 1.94 nM	7.31 ± 1.12 nM	–
O=C(CCCCCCC(=O)Nc1ccccc1)NO [SAHA, Vorinostat, reference compound]	–	–	no inhibition
